In ChEMBL document CHEMBL1165848, “Discovery of new cholesteryl ester transfer protein inhibitors via ligand-based pharmacophore modeling and QSAR analysis followed by synthetic exploration” (Eur J Med Chem, 2010) one finds IC50 and inhibition data, which are given here for 64 compounds.

In the first assay the target is T1, Cholesteryl ester transfer protein (Oryctolagus cuniculus, UniProt P22687).
T1 sequence (P22687 whole entry): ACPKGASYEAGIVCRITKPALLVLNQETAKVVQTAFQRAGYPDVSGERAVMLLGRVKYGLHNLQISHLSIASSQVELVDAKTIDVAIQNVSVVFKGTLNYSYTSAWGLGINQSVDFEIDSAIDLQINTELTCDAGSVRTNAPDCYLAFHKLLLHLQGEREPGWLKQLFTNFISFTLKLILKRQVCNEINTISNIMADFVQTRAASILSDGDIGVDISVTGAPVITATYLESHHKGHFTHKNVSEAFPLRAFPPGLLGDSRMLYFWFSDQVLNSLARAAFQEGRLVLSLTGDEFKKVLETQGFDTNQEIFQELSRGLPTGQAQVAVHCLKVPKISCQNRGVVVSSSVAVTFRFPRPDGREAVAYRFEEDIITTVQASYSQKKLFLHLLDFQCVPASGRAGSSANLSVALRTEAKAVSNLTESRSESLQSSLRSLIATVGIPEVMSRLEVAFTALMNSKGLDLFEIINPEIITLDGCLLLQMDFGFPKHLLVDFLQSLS
As to the kind of experiment: Inhibition of CETP in rabbit serum after 1 hr by fluorescent cholesteryl esters transfer assay. Particulars: read-out: IC50.
By IC50 is commonly meant the concentration at which inhibition is half-maximal. On to `O=S(=O)(Nc1ccc(CSc2ccc(Cl)cc2)cc1)c1ccccc1`, for which the IC50 is 1.9 µM. `CCN(CC)c1ccc(Nc2ccc(CC(=O)c3ccccc3)cc2)cc1`: the IC50 stood at 6.5 µM.

Turning to `CCCCCCCCOC(=O)c1ccc2c(c1)Nc1cc3ccccc3cc1N2`, the IC50 is 60.3 µM.

In the case of `COc1ccc(Cl)cc1C(=O)NCCc1ccc(S(=O)(=O)NC(=O)NC2CCCCC2)cc1` [GLYBURIDE], the half-maximal inhibitory concentration (IC50) amounted to 239 µM. On to `CCc1cc(Oc2cccc(N(Cc3ccc(C(F)(F)F)cc3F)C[C@@H](O)C(F)(F)F)c2)ccc1Cl`, for which the IC50 turned out to be 0.04 µM.

Another assay has as its target T2, Cholesteryl ester transfer protein (Oryctolagus cuniculus) (UniProt P22687).
T2 sequence (whole entry): T1 sequence (P22687 whole entry)
As to the kind of experiment: Inhibition of CETP in rabbit serum at 10 uM after 1 hr by fluorescent cholesteryl esters transfer assay.
Details: not given
As usually defined, the inhibition is the share of the control response that was lost under treatment. Turning to `COc1ccc(/C=N/c2ccc(C(=O)c3ccc(OC)cc3OC)cc2)cc1`, the inhibition worked out at 19.5%.

As for `COc1ccc(C(=O)c2ccc(/N=C/c3ccc(C(C)(C)C)cc3)cc2)c(OC)c1`, the inhibition turned out to be 24.9%. The same measure, in the same setting: then `O=S(=O)(Nc1ccc(CSc2ccc(Cl)cc2)cc1)c1ccccc1`, with 82.5%; and `Cc1cc(Cl)c(Cl)cc1NC(=O)c1cccc(C(=O)Nc2cc(Cl)c(Cl)cc2C)c1`, with 0%. On the same count and under the same terms, then `COc1ccc(CCN2CCC(Nc3nc4ccccc4n3Cc3ccc(F)cc3)CC2)cc1`, with 20.8%; and `O=C(Nc1ccc(Cl)c(Cl)c1)OCC(Cl)COc1ccc(Cl)cc1` (stereo not drawn), with 0%; and `CC(C)[C@H](Nc1ccc(C(F)(F)F)cc1Cl)C(=O)OC(C#N)c1cccc(Oc2ccccc2)c1` (stereo partly drawn), with 0%. Regarding `O=C(c1ccc(-c2ccccc2)cc1)c1cccc(/N=C/c2cccc(C(F)(F)F)c2)c1`, the inhibition stood at 33.8%. `O=C(CCCCC(=O)Nc1c(I)cc(I)c(C(=O)O)c1I)Nc1c(I)cc(I)c(C(=O)O)c1I` yielded an inhibition of 15.9%.

Turning to `COc1ccc2nc3cc(Cl)ccc3c(Nc3ccc(C(O)CCn4cccc4)cc3)c2c1` (stereo not drawn), the inhibition was 13.4%. In turn, `OC1=C2Nc3ccc(Cl)cc3N=C2OC1c1c[nH]c2ccc(COc3ccccc3)cc12` (stereo not drawn) showed an inhibition of 9.1%. The same measure, in the same setting: then `COc1ccc(C(=O)c2ccc(/N=C/c3ccc(C(F)(F)F)cc3)cc2)c(OC)c1`, with 15.4%. The same measure, in the same setting: then `CCOc1cc(C2SCC(=O)N2c2ccc(Oc3ccc(Cl)cc3)c(Cl)c2)ccc1O` (stereo not drawn), with 6.7%; and `CC(C)C[C@H]1C(=O)N2CCC[C@H]2[C@]2(O)O[C@](NC(=O)[C@@H]3C=C4c5cccc6[nH]c(Br)c(c56)C[C@H]4N(C)C3)(C(C)C)C(=O)N12`, with 12.3%; and `COc1cccc(/C=N/c2ccc(C(=O)c3ccc(OC)cc3OC)cc2)c1`, with 23.7%. On the same count and under the same terms, then `CCCCOc1ccc2nccc(N/N=C/c3ccc(OC)c4ccccc34)c2c1`, with 25.4%. Compound `Cc1ccc(S(=O)(=O)Nc2cccc3c(NS(=O)(=O)c4ccc(C)cc4)cccc23)cc1` showed an inhibition of 0%. The same measure, in the same setting: then `OCc1cc(C(O)CNCCCCCCOCCCCc2ccccc2)ccc1O` (stereo not drawn), with 27.4%. In turn, `O=C(c1ccccc1)c1cccc(/N=C/c2ccc(C(F)(F)F)cc2)c1` gave an inhibition of 26.3%. `Clc1ccc2c(NCCCC/N=C/c3ccccc3)cccc2c1` displayed an inhibition of 0%. The same measure, in the same setting: the figure for `CCN(CC)CCC(=O)c1ccc(Nc2ccnc3cc(Cl)ccc23)cc1` is 20.3%. Still for that read-out and setting: the figure for `O=C(NC(=O)c1c(F)cccc1F)Nc1ccc(Cl)c(Oc2ncc(C(F)(F)F)cc2Cl)c1` is 0%. In turn, `O=C(c1ccccc1)c1cc(Cl)ccc1NCC(O)COc1ccc(Cl)cc1` (stereo not drawn) displayed an inhibition of 8.1%. As to `N=c1[nH]c(=O)n(CCCOc2cccc(Cl)c2)cc1-c1ccc(Cl)c(Cl)c1`, the inhibition amounted to 0%. Still for that read-out and setting: then `O=C(COc1cccc(Cl)c1)Nc1cccc(CN2C(=O)c3ccccc3C2=O)c1`, with 0%; and `COc1ccc(/N=C/c2ccc(N(CCC#N)S(=O)(=O)c3ccccc3)cc2)cc1`, with 0%. Same read-out and setting: the figure for `COc1ccc(C(=O)c2cccc(/N=C/c3ccccc3)c2)cc1` is 12.6%; for `COc1cc(N)c(Cl)cc1C(=O)NC1CCN(CCCOc2ccc(F)cc2)CC1OC` (stereo not drawn) it is 10.6%; for `COc1ccc(OCCCn2cc(-c3ccc(Cl)c(Cl)c3)c(=N)[nH]c2=O)cc1` it is 0%.

Regarding `O=C(Nc1ccc(Cl)cc1C(F)(F)F)Oc1ccc(OCc2ccccc2)cc1`, the inhibition was 22.1%. With `CCN(CC)Cc1cc(Nc2ccnc3cc(Cl)ccc23)ccc1O`, the inhibition turned out to be 18.6%. `O=C(NCCCOc1ccc(Cl)c(Cl)c1)NCCc1ccc(Cl)c(Cl)c1`: the inhibition was found to be 0%. The compound `C=CCc1cccc(/C=N/c2ccccc2NS(=O)(=O)c2ccc(C)cc2)c1O` had an inhibition of 22.6%. `Cc1cc2c(cc1C)NC1=C(O)C(c3c[nH]c4ccc(COc5ccccc5)cc34)OC1=N2` (stereo not drawn): the inhibition is 0%. Compound `Cc1ccc(Nc2ccc(Nc3ccc(C)cc3)c3c2C(=O)c2cc(Cl)c(Cl)cc2C3=O)cc1` registered an inhibition of 20.8%.

For the compound `O=c1oc2ccccc2c(O)c1C(CC(O)c1ccc(-c2ccc(Br)cc2)cc1)c1ccccc1` (stereo not drawn), the inhibition was found to be 0%.

For `CCCNCC(O)COc1ccccc1C(=O)CCc1ccccc1` (stereo not drawn), the inhibition stood at 0%. Same read-out and setting: the figure for `CCN(CC)c1ccc(Nc2ccc(CC(=O)c3ccccc3)cc2)cc1` is 52.5%; for `O=C(c1ccc(/N=C/c2cccc(C(F)(F)F)c2)cc1)c1ccc(-c2ccccc2)cc1` it is 9.8%; for `C[C@]12CC[C@@H]3c4ccc(O)cc4C[C@@H](CCCCCCCCC[S+]([O-])CCCC(F)(F)C(F)(F)F)[C@H]3[C@@H]1CC[C@@H]2O` (stereo partly drawn) it is 5.7%.

Turning to `Cc1ccc(Nc2ccc(Nc3ccc(C)cc3)c3c2C(=O)c2cccc(O)c2C3=O)cc1`, the inhibition was 14%. For the compound `O=C(c1ccccc1)c1ccccc1NCC(O)COc1ccc(Cl)cc1` (stereo not drawn), the inhibition was 0%. Compound `N=C(Nc1cccc2ccccc12)SCCCSC(=N)Nc1cccc2ccccc12` came in with an inhibition of 0%. Still for that read-out and setting: the figure for `O=C(Nc1ccc(Br)cc1)N1CCN(C(=O)Nc2ccc(Br)cc2)CC1` is 0%; for `N=c1[nH]c(=O)n(CCCOc2ccccc2)cc1-c1ccc(Cl)c(Cl)c1` it is 0%; for `CC(C)(C(=O)O)c1ccc(C(O)CCCN2CCC(C(O)(c3ccccc3)c3ccccc3)CC2)cc1` (stereo not drawn) it is 0%. For the compound `OC(COc1c(Cl)cc(Cl)cc1Cl)COc1c(Cl)cc(Cl)cc1Cl`, the inhibition worked out at 0%. Same read-out and setting: then `COc1ccc(/C=N/c2ccc(C(=O)c3ccccc3)cc2)cc1`, with 19.9%; and `CCOc1ccc(/N=C/c2ccc(O)c(OC)c2)c(O)c1`, with 25.5%. Consider `CCCCCCCCOC(=O)c1ccc2c(c1)Nc1cc3ccccc3cc1N2`, for which the inhibition was found to be 33%. The same measure, in the same setting: the figure for `Cc1ccc(NC(=O)c2ccc(C(=O)Nc3ccc(C)c(Cl)c3)cc2)cc1Cl` is 0%; for `CC(C)(C)c1ccc(C(O)CCCN2CCC(C(O)(c3ccccc3)c3ccccc3)CC2)cc1` (stereo not drawn) it is 0%; for `COc1ccc(/C=N/c2cccc(C(=O)c3ccc(OC)cc3)c2)cc1` it is 14.8%. `Cc1cc[n+](CC(=O)CCc2ccc(C(=O)C[n+]3ccc(C)cc3)cc2)cc1` had an inhibition of 6%. For `CC(C)OC(=O)CCC/C=C\C[C@@H]1[C@@H](/C=C/[C@@H](O)COc2cccc(C(F)(F)F)c2)[C@H](O)C[C@@H]1O`, the inhibition came out at 0%. `O=C(Nc1ccc2c(c1)CCC2)c1ccc(C(=O)Nc2ccc3c(c2)CCC3)cc1` came in with an inhibition of 0%. On the same count and under the same terms, the figure for `COc1ccc(Cl)cc1C(=O)NCCc1ccc(S(=O)(=O)NC(=O)NC2CCCCC2)cc1` [GLYBURIDE] is 35%; for `CC(C)OC(=O)CCC/C=C\C[C@@H]1[C@@H](CC[C@@H](O)CCc2ccccc2)[C@H](O)C[C@@H]1O` it is 11.4%; for `CCCCOc1ccc(NC(=N)Nc2ccc(Cl)cc2)cc1` it is 0%. Same read-out and setting: then `CCSc1nc2ccc(/N=C\c3ccc(NS(=O)(=O)c4ccccc4)cc3O)cc2s1`, with 0%.

`CN(CN(C)/N=C\c1ccc(Cl)cc1)/N=C\c1ccc(Cl)cc1` showed an inhibition of 0%. `C/C=C/c1ccc2oc(-c3ccc(OC4OC(C)C(O)C(O)C4O)cc3)c(C)c2c1` (stereo not drawn): the inhibition was 9%.

As to `COc1ccc(C(=O)c2ccc(/N=C/c3cccc(C(F)(F)F)c3)cc2)c(OC)c1`, the inhibition turned out to be 14.9%.
